The results in this text go back to patent publication US8835458B2 (Hanmi Science Co., Ltd, priority 2010, dated 2014).

Data set [1] is described as follows: Toxicity to normal cells (SRB). The class given is cell-based, mouse. The following applies: mouse, Balb/c3t3 fibroblasts (normal cell line), read-out: BalB/C (GI50). In a few lines:
(§1)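 GI50 values come from growth equations comparing treated, untreated and medium-only wells. Fibroblasts (Hs27, Balb/c3t3) got 72 h compound exposure with SRB read-out at 540 nm after TCA fixing. MDA-MB-231 got 120 h with MTS at 490 nm, across 10 μM˜0.1 nM.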

Data set [2] is described as follows: Toxicity to normal cells (SRB). The class given is cell-based, human. The following applies: human, Hs27 fibroblasts (normal cell line). In a few lines:
as §1

For data set [3], the system named is MDA-MB-231 breast cancer cell lines. Briefly: Evaluation of inhibition on cell growth (MTS). It counts as cell-based. As to conditions: Homo sapiens, MDA-MB-231, 120 hours. A digest of the protocol:
as §1

Structures can show the parent of a compound that is named as a salt. Where two headings read alike, the source gives them in different places.

As to `CN[C@@H](C)C(=O)N[C@H](C(=O)N1CCC[C@H]1C(=O)Nc1cc2c(Nc3ccc4ncccc4c3)ncnc2cc1OC)C(C)(C)C` [Example 53, (S)-1-((S)-3,3-dimethyl-2-((S)-2-(methylamino)propanamido)butanoyl)-N-(7-methoxy-4-(quinoline-6-ylamino)quinazolin-6-yl)pyrrolidine-2-carboxamide], the GI50 at 72 h in data set [1] and in data set [2] was more than 10 µM each time. The same compound registered a GI50 in data set [3] not above 0.1 µM.

As to `CN[C@@H](C)C(=O)N[C@H](C(=O)N1CCC[C@H]1C(=O)Nc1cc2c(Nc3ccc4[nH]ncc4c3)ncnc2cc1OC)C(C)(C)C` [Example 54, (S)—N-(4-(1H-indazol-5-ylamino)-7-methoxyquinazolin-6-yl)-1-((S)-3,3-dimethyl-2-((S)-2-(methylamino)propanamido)butanoyl)pyrrolidine-2-carboxamide], the GI50 at 72 h in data set [1] and in data set [2] was more than 10 µM in each case. In addition, in data set [3], the GI50 is not above 0.1 µM.

For `CN[C@@H](C)C(=O)N[C@H](C(=O)N1CCC[C@H]1C(=O)Nc1cc2c(Nc3ccc(F)cc3)ncnc2cc1OC)C(C)(C)C` [Example 55, (S)-1-((S)-3,3-dimethyl-2-((S)-2-(methylamino)propanamido)butanoyl)-N-(4-(4-fluorophenylamino)-7-methoxyquinazolin-6-yl)pyrrolidine-2-carboxamide], the GI50 at 72 h in data set [1] and in data set [2] was more than 10 µM in each case. Moreover, the GI50 in data set [3] is not above 0.1 µM.

Turning to `CN[C@@H](C)C(=O)N[C@H](C(=O)N1CCC[C@H]1C(=O)Nc1cc2c(Nc3ccc(Cl)cc3)ncnc2cc1OC)C(C)(C)C` [Example 56, (S)—N-(4-(4-chlorophenylamino)-7-methoxyquinazolin-6-yl)-1-((S)-3,3-dimethyl-2-((S)-2-(methylamino)propanamido)butanoyl)pyrrolidine-2-carboxamide], the GI50 at 72 h in data set [1] and in data set [2] was more than 10 µM in each case. In data set [3], this compound had a GI50 not above 0.1 µM.

In the case of `CN[C@@H](C)C(=O)N[C@H](C(=O)N1CCC[C@H]1C(=O)Nc1cc2c(Nc3cccc(OC)c3)ncnc2cc1OC)C(C)(C)C` [Example 57, (S)-1-((S)-3,3-dimethyl-2-((S)-2-(methylamino)propanamido)butanoyl)-N-(7-methoxy-4-(3-methoxyphenylamino)quinazolin-6-yl)pyrrolidine-2-carboxamide hydrochloride], the GI50 at 72 h in data set [1] and in data set [2] was more than 10 µM throughout. This compound also returned a GI50 in data set [3] not above 0.1 µM.

As for `CN[C@@H](C)C(=O)N[C@H](C(=O)N1CCC[C@H]1C(=O)Nc1cc2c(Nc3ccc(Cl)cc3Cl)ncnc2cc1OC)C(C)(C)C` [Example 58, (S)—N-(4-(2,4-dichlorophenylamino)-7-methoxyquinazolin-6-yl)-1-((S)-3,3-dimethyl-2-((S)-2-(methylamino)propanamido)butanoyl)pyrrolidine-2-carboxamide hydrochloride], the GI50 at 72 h in data set [1] and in data set [2] was more than 10 µM each time. In data set [3], this compound gave a GI50 not above 0.1 µM.

Regarding `CN[C@@H](C)C(=O)N[C@H](C(=O)N1CCC[C@H]1C(=O)Nc1cc2c(Nc3c(F)cccc3F)ncnc2cc1OC)C(C)(C)C` [Example 59, (S)—N-(4-(2,6-difluorophenylamino)-7-methoxyquinazolin-6-yl)-1-((S)-3,3-dimethyl-2-((S)-2-(methylamino)propanamido)butanoyl)pyrrolidine-2-carboxamide], the GI50 at 72 h in data set [1] and in data set [2] was more than 10 µM in each case. The GI50 in data set [3] is not above 0.1 µM.

For `CCN1CCN(c2ccc(Nc3ncnc4cc(OC)c(NC(=O)[C@@H]5CCCN5C(=O)[C@@H](NC(=O)[C@H](C)NC)C(C)(C)C)cc34)cc2)CC1` [Example 60, (S)-1-((S)-3,3-dimethyl-2-((S)-2-(methylamino)propanamido)butanoyl)-N-(4-(4-(4-ethylpiperazin-1-yl)phenylamino)-7-methoxyquinazolin-6-yl)pyrrolidine-2-carboxamide], the GI50 at 72 h in data set [1] and in data set [2] was more than 10 µM in each case. The compound further showed a GI50 in data set [3] of 0.1 to 1 µM.

On to `CN[C@@H](C)C(=O)N[C@H](C(=O)N1CCC[C@H]1C(=O)Nc1cc2c(Nc3ccc4c(c3)OCO4)ncnc2cc1OC)C(C)(C)C` [Example 61, (S)—N-(4-(benzo[d][1,3]dioxol-5-ylamino)-7-methoxyquinazolin-6-yl)-1-((S)-3,3-dimethyl-2-((S)-2-(methylamino)propanamido)butanoyl)pyrrolidine-2-carboxamide], for which the GI50 at 72 h in data set [1] and in data set [2] was more than 10 µM in each case. Also, the GI50 in data set [3] was not below 1 µM.

Consider `CN[C@@H](C)C(=O)N[C@H](C(=O)N1CCC[C@H]1C(=O)Nc1cc2c(Nc3cnc4ccccc4c3)ncnc2cc1OC)C(C)(C)C` [Example 62, (S)-1-((S)-3,3-dimethyl-2-((S)-2-(methylamino)propanamido)butanoyl)-N-(7-methoxy-4-(quinoline-3-ylamino)quinazolin-6-yl)pyrrolidine-2-carboxamide dihydrochloride], for which the GI50 at 72 h in data set [1] and in data set [2] was more than 10 µM in each case. This compound also registered a GI50 in data set [3] of 0.1 to 1 µM.

Turning to `CN[C@@H](C)C(=O)N[C@H](C(=O)N1CCC[C@H]1C(=O)Nc1cc2c(Nc3cccc4ncccc34)ncnc2cc1OC)C(C)(C)C` [Example 63, (S)-1-((S)-3,3-dimethyl-2-((S)-2-(methylamino)propanamido)butanoyl)-N-(7-methoxy-4-(quinoline-5-ylamino)quinazolin-6-yl)pyrrolidine-2-carboxamide hydrochloride], the GI50 at 72 h in data set [1] and in data set [2] was more than 10 µM each time. The GI50 in data set [3] is not above 0.1 µM.

On to `CN[C@@H](C)C(=O)N[C@H](C(=O)N1CCC[C@H]1C(=O)Nc1cc2c(Nc3ccc(N(C)C)cc3)ncnc2cc1OC)C(C)(C)C` [Example 64, (S)-1-((S)-3,3-dimethyl-2-((S)-2-(methylamino)propanamido)butanoyl)-N-(7-methoxy-4-(4-dimethylamino)phenylamino)quinazolin-6-yl)pyrrolidine-2-carboxamide dihydrochloride], for which the GI50 at 72 h in data set [1] and in data set [2] was more than 10 µM in each case. In addition, in data set [3], the GI50 was not above 0.1 µM.

For the compound `CN[C@@H](C)C(=O)N[C@H](C(=O)N1CCC[C@H]1C(=O)Nc1cc2c(Nc3ccc(N4CCCC4)cc3)ncnc2cc1OC)C(C)(C)C` [Example 65, (S)-1-((S)-3,3-dimethyl-2-((S)-2-(methylamino)propanamido)butanoyl)-N-(7-methoxy-4-(4-(pyrrolidin-1-yl)phenylamino)quinazolin-6-yl)pyrrolidine-2-carboxamide dihydrochloride], the GI50 at 72 h in data set [1] and in data set [2] was more than 10 µM in each case. Also, the GI50 in data set [3] was not above 0.1 µM.

As for `CN[C@@H](C)C(=O)N[C@H](C(=O)N1CCC[C@H]1C(=O)Nc1cc2c(Nc3ccc(N4CCCCC4)cc3)ncnc2cc1OC)C(C)(C)C` [Example 66, (S)-1-((S)-3,3-dimethyl-2-((S)-2-(methylamino)propanamido)butanoyl)-N-(7-methoxy-4-(4-(piperidin-1-yl)phenylamino)quinazolin-6-yl)pyrrolidine-2-carboxamide dihydrochloride], the GI50 at 72 h in data set [1] and in data set [2] was more than 10 µM in each case. For the same compound, the GI50 in data set [3] was not above 0.1 µM.

Consider `CN[C@@H](C)C(=O)N[C@H](C(=O)N1CCC[C@H]1C(=O)Nc1cc2c(Nc3ccc(N4CCN(C)CC4)cc3)ncnc2cc1OC)C(C)(C)C` [Example 67, (S)-1-((S)-3,3-dimethyl-2-((S)-2-(methylamino)propanamido)butanoyl)-N-(7-methoxy-4-(4-(4-methylpiperazin-1-yl)phenylamino)quinazolin-6-yl)pyrrolidine-2-carboxamide dihydrochloride], for which the GI50 at 72 h in data set [1] and in data set [2] was more than 10 µM throughout. The GI50 in data set [3] is not above 0.1 µM.

For the compound `CCN(CC)c1ccc(Nc2ncnc3cc(OC)c(NC(=O)[C@@H]4CCCN4C(=O)[C@@H](NC(=O)[C@H](C)NC)C(C)(C)C)cc23)cc1` [Example 68, (S)-1-((S)-3,3-dimethyl-2-((S)-2-(methylamino)propanamido)butanoyl)-N-(7-methoxy-4-(4-diethylamino)phenylamino)quinazolin-6-yl)pyrrolidine-2-carboxamide dihydrochloride], the GI50 at 72 h in data set [1] and in data set [2] was more than 10 µM throughout. The same compound returned a GI50 in data set [3] not above 0.1 µM.

For `CN[C@@H](C)C(=O)N[C@H](C(=O)N1CCC[C@H]1C(=O)Nc1cc2c(Nc3ccc(NC(C)=O)cc3)ncnc2cc1OC)C(C)(C)C` [Example 69, (S)—N-(4-(4-acetamidophenylamino)-7-methoxyquinazolin-6-yl)-1-((S)-3,3-dimethyl-2-((S)-2-(methylamino)propanamido)butanoyl)pyrrolidine-2-carboxamide], the GI50 at 72 h in data set [1] and in data set [2] was more than 10 µM each time. For the same compound, the GI50 in data set [3] is not above 0.1 µM.

As to `CCN1CCN(c2ccc(Nc3ncnc4cc(OC)c(NC(=O)[C@@H]5CCCN5C(=O)[C@@H](NC(=O)[C@H](C)NC)C(C)(C)C)cc34)cc2C(F)(F)F)CC1` [Example 70, (S)-1-((S)-3,3-dimethyl-2-((S)-2-(methylamino)propanamido)butanoyl)-N-(4-(4-(4-ethylpiperazin-1-yl)-3-(trifluoromethyl)phenylamino)-7-methoxyquinazolin-6-yl)pyrrolidine-2-carboxamide dihydrochloride], the GI50 at 72 h in data set [1] and in data set [2] was more than 10 µM each time. In data set [3], the GI50 was not above 0.1 µM.
